These results are taken from patent US20120245137A1 (Zalicus Pharmaceuticals Ltd., priority 2009, published 2012).

One may read the IC50 as the concentration needed to halve the response being measured.

Chain of human α1G T-type channels (O43497 whole entry): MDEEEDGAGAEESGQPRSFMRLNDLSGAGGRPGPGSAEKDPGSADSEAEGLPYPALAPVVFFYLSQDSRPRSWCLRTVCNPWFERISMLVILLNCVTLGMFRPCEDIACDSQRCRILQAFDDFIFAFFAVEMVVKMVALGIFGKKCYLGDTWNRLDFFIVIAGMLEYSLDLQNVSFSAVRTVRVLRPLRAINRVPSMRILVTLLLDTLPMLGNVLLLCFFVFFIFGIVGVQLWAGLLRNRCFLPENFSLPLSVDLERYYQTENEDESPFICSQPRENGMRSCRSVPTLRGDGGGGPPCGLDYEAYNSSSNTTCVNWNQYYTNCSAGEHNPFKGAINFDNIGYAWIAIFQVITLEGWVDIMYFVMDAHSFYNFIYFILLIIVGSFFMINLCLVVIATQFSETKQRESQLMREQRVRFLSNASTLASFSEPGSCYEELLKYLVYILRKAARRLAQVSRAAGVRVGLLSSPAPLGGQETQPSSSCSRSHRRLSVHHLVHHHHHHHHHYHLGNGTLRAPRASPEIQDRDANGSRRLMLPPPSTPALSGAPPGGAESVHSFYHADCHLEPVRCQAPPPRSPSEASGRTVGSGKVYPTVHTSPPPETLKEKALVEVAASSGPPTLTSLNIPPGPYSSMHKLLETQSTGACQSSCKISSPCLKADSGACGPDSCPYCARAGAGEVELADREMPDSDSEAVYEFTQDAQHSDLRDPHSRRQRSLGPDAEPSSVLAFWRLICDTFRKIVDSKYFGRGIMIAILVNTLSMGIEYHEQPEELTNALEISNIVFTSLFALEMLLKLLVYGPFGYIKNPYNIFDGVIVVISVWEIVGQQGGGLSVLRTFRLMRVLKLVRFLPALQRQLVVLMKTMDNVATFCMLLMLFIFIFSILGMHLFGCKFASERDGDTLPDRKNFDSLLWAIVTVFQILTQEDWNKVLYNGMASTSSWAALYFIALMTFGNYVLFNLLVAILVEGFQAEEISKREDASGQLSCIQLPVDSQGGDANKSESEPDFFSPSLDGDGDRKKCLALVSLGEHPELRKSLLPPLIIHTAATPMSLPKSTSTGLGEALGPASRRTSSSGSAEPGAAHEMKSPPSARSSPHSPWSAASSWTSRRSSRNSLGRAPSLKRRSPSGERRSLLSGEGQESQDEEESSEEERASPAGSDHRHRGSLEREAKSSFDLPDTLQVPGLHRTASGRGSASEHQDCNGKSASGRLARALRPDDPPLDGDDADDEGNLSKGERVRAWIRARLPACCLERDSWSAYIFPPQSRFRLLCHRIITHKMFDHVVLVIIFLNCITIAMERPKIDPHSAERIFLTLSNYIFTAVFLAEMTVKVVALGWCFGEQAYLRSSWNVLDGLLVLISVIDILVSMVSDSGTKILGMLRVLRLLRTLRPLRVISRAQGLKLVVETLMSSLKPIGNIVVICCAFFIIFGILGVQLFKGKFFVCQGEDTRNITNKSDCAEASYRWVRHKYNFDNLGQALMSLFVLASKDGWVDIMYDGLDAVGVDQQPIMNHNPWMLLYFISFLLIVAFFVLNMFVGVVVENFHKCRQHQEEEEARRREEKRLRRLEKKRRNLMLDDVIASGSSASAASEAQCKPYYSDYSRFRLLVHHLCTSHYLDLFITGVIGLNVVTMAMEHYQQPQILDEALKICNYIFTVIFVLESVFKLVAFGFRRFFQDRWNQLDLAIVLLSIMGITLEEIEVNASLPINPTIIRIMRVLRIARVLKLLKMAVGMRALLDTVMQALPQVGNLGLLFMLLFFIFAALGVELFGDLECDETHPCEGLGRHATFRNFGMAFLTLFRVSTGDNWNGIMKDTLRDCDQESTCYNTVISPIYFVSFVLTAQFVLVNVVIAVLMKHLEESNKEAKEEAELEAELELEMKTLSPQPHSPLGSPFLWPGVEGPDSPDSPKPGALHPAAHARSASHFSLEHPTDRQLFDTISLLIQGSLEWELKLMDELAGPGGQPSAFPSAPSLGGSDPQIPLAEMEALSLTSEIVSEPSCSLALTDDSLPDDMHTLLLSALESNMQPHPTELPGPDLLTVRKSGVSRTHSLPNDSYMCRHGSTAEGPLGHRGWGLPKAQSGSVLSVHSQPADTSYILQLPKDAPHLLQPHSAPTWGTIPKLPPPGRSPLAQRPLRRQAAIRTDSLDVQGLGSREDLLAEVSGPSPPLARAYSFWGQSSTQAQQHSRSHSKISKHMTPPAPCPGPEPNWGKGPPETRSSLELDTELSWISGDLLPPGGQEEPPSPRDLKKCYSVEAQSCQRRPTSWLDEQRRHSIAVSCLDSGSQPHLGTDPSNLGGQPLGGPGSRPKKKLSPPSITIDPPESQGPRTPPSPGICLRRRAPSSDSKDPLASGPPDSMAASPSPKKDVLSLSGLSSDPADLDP

The first assay deals with human α1G T-type channels (Homo sapiens, UniProt O43497). In words: T-type calcium channel block, whole cell patch clamp, α1G. Particulars: HEK cells stably expressing human α1G; mainly non-inactivated protocol; values above 10,000 nM represented as 10000. It is filed as cell-based. Here is the method:
T-type calcium channel blocking activity was assayed in human embryonic kidneycells, HEK 293 (Invitrogen), stably transfected with the T-type calcium channel subunits. Briefly, cells were cultured in Dulbecco's modified eagle medium (DMEM) supplemented with 10% fetal bovine serum, 200 U/ml penicillin, and 0.2 mg/mL streptomycin at 37° C. with 5% CO2. At 85% confluency, cells were split with 0.25% trypsin/1 mM EDTA and plated at 10% confluency on glass coverslips. At 12 hours, the medium was replaced, and the cells stably transfected using a standard calcium phosphate protocol and the appropriate calcium channel cDNA's. Fresh DMEM was supplied, and the cells transferred to 28° C./5% CO2.
Standard patch-clamp techniques were employed to identify blockers of T-type currents. Briefly, previously described HEK cell lines stably expressing human α1G, α1H, and α1I T-type channels were used for all the recordings (passage #: 4-20, 37° C., 5% CO2). Whole cell patch clamp experiments were performed using an Axopatch 200B amplifier (Axon Instruments, Burlingame, Calif.) linked to a personal computer equipped with pCLAMP software. Data were analyzed using Clampfit (Axon Instruments) and SigmaPlot 4.0 (Jandel Scientific). To obtain T-type currents, plastic dishes containing semi-confluent cells were positioned on the stage of a ZEISS AXIOVERT S100 microscope after replacing the culture medium with external solution (Table 2). Whole-cell patches were obtained using pipettes (borosilicate glass with filament, O.D.: 1.5 mm, I.D.: 0.86 mm, 10 cm length), fabricated on a SUTTER P-97 puller with resistance values of ˜5 MΩ (Table 3).
T-type currents were reliably obtained by using two voltage protocols: • “non-inactivating,” and • “inactivation.”
Test compounds were dissolved in external solution, 0.1-0.01% DMSO. After ˜10 minutes rest, they were applied by gravity close to the cell using a WPI microfil tubing. The “non-inactivated” pre-pulse was used to examine the resting block of a compound. The “inactivated” protocol was employed to study voltage-dependent block.
Background: Patch clamp records ionic current or voltage across a cell membrane.
Consider `CC(C)(CCNC(=O)c1cc(S(C)(=O)=O)ccc1Cl)S(=O)(=O)c1cccc(C(F)(F)F)c1` [Compound 530, 2-chloro-N-(3-methyl-3-(3-(trifluoromethyl)phenylsulfonyl)butyl)-5-(methylsulfonyl)benzamide], for which the IC50 is 940 nM.
On the same count and under the same terms, in the case of `CN(CCC(C)(C)S(=O)(=O)c1cccc(C(F)(F)F)c1)C(=O)c1ccc(C(F)(F)F)cc1S(C)(=O)=O` [Compound 508, N-methyl-N-(3-methyl-3-(3-(trifluoromethyl)phenylsulfonyl)butyl)-2-(methylsulfonyl)-4-(trifluoromethyl)benzamide] it was 850 nM; in that of `CC(C)(CNS(=O)(=O)c1ccc(S(C)(=O)=O)cc1)S(=O)(=O)c1cccc(C(F)(F)F)c1` [Compound 497, N-(2-methyl-2-(3-(trifluoromethyl)phenylsulfonyl)propyl)-4-(methylsulfonyl) benzenesulfonamide], 520 nM; in that of `CN(CCC(C)(C)S(=O)(=O)c1cccc(C(F)(F)F)c1)C(=O)c1ccc(C(F)(F)F)nc1` [Compound 511, N-methyl-N-(3-methyl-3-(3-(trifluoromethyl)phenylsulfonyl)butyl)-6-(trifluoromethyl)nicotinamide], 960 nM.
In the case of `Cc1cccc(C(=O)NCC(C)(C)S(=O)(=O)c2cccc(C(F)(F)F)c2)n1` [Compound 485, 6-methyl-N-(2-methyl-2-(3-(trifluoromethyl)phenylsulfonyl)propyl) picolinamide], the IC50 worked out at 710 nM.
On the same count and under the same terms, in the case of `CC(C)(CCNC(=O)c1ccnc(C(F)(F)F)n1)S(=O)(=O)c1cc(F)cc(C(F)(F)F)c1` [Compound 534, N-(3-(3-fluoro-5-(trifluoromethyl)phenylsulfonyl)-3-methylbutyl)-2-(trifluoromethyl)pyrimidine-4-carboxamide] it was 830 nM.
Turning to `CC(C)(CNS(=O)(=O)c1cccc2nonc12)S(=O)(=O)c1cccc(C(F)(F)F)c1` [Compound 493], the IC50 amounted to 680 nM.
In the case of `CN(CCC(C)(C)S(=O)(=O)c1cccc(C(F)(F)F)c1)C(=O)c1cc(C(F)(F)F)nn1C` [Compound 509, N,1-dimethyl-N-(3-methyl-3-(3-(trifluoromethyl)phenylsulfonyl)butyl)-3-(trifluoromethyl)-1H-pyrazole-5-carboxamide], the IC50 was 650 nM.
Turning to `CN(CCC(C)(C)S(=O)(=O)c1cccc(C(F)(F)F)c1)C(=O)c1ccc(C(F)(F)F)cn1` [Compound 515, N-methyl-N-(3-methyl-3-(3-(trifluoromethyl)phenylsulfonyl)bulyl)-5-(trifluoromethyl)picolinamide], the IC50 stood at 610 nM.

The target of the next assay is N-type calcium channel subunits (α1B, α2δ, and β3a) (Homo sapiens, UniProt Q00975). In words: Block of Cav2.2 channel, whole cell voltage clamp, manual and PatchXpress. It is filed as cell-based. The following applies: Table 5; table follows Assay Example 3 (whole cell voltage clamp / PatchXpress); assay not given. Summed up:
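Percent block taken as current amplitude ratio with versus without compound, applied in rising doses; IC50 fitted where one cell received multiple doses. Protocol: 50 ms pulses to +20 mV at 0.067 Hz from […] or −90 mV holding; P/n leak subtraction, no junction-potential correction; manual and PatchXpress recordings.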
Take `CC(C)([C@H]1C[C@H](NC(=O)c2ncc(C(F)(F)F)cc2S(C)(=O)=O)C1)S(=O)(=O)c1cccc(C(F)(F)F)c1` [Compound 436, 3-(methylsulfonyl)-5-(trifluoromethyl)-N-((1R,3R)-3-(2-(3-(trifluoromethyl)phenylsulfonyl)propan-2-yl)cyclobutyl)picolinamide]: the IC50 was determined as 630 nM.
The same measure, in the same setting: in the case of `O=C(N[C@H]1CC[C@H](S(=O)(=O)c2cccc(C(F)(F)F)c2)CC1)c1ccc(C(F)(F)F)nc1` [Compound 186, 6-(trifluoromethyl)-N-((1R,4R)-4-(3-(trifluoromethyl)phenylsulfonyl)cyclohexyl)nicotinamide] it was 5840 nM.
On the same count and under the same terms, in the case of `CC(C)(C)S(=O)(=O)c1ccsc1C(=O)N[C@H]1CC[C@H](S(=O)(=O)c2cccc(C(F)(F)F)c2)CC1` [Compound 191, 3-(tert-butylsulfonyl)-N-((1R,4R)-4-(3-(trifluoromethyl)phenylsulfonyl)cyclohexyl)thiophene-2-carboxamide] it was 1220 nM; in that of `COc1cc(F)cc(C(=O)NC[C@]2(O)CC[C@@H](S(=O)(=O)c3cccc(C(F)(F)F)c3)CC2)c1` [Compound 229, 3-fluoro-N-(((1S,4S)-1-hydroxy-4-(3-(trifluoromethyl)phenylsulfonyl)cyclohexyl)methyl)-5-methoxybenzamide], 1020 nM; in that of `O=C(NC[C@]1(O)CC[C@@H](S(=O)(=O)c2cccc(C(F)(F)F)c2)CC1)c1ccc(C(F)(F)F)nc1` [Compound 235, N-(((1S,4S)-1-hydroxy-4-(3-(trifluoromethyl)phenylsulfonyl)cyclohexyl)methyl)-6-(trifluoromethyl)nicotinamide], 5940 nM.
In the case of `O=C(N[C@H]1C[C@H](S(=O)(=O)c2cccc(C(F)(F)F)c2)C1)c1ccc(F)c(C(F)(F)F)c1` [Compound 224, 4-fluoro-3-(trifluoromethyl)-N-(trans-3-(3-(trifluoromethyl)phenylsulfonyl)cyclobutyl)benzamide], the IC50 came to 1500 nM.
On the same count and under the same terms, under `O=C(Nc1ncccc1C(F)(F)F)[C@H]1C[C@@H](S(=O)(=O)c2cccc(C(F)(F)F)c2)C1` [Compound 414, (1S,3S)-3-(3-(trifluoromethyl)phenylsulfonyl)-N-(3-(trifluoromethyl)pyridin-2-yl)cyclobutanecarboxamide] stands 1360 nM; under `O=C(N[C@H]1CC[C@@H](S(=O)(=O)c2cccc(C(F)(F)F)c2)CC1)c1cc(F)cc(Cl)c1` [Compound 40, 3-chloro-5-fluoro-N-((1S,4S)-4-(3-(trifluoromethyl)phenylsulfonyl)cyclohexyl)benzamide], 170 nM; under `O=C(CN[C@H]1CC[C@H](S(=O)(=O)c2cccc(C(F)(F)F)c2)CC1)Nc1ccccn1` [Compound 77, N-(pyridin-2-yl)-2-((1R,4R)-4-(3-(trifluoromethyl)phenylsulfonyl)cyclohexylamino)acetamide], 740 nM.
The same measure, in the same setting: under `COc1cc(C(=O)NC[C@]2(O)CC[C@@H](S(=O)(=O)c3cccc(C(F)(F)F)c3)CC2)cc(Cl)n1` [Compound 236, 2-chloro-N-(((1S,4S)-1-hydroxy-4-(3-(trifluoromethyl)phenylsulfonyl)cyclohexyl)methyl)-6-methoxyisonicotinamide] stands 2100 nM; under `O=C(Nc1ccc(Oc2ccc(F)cc2)cc1)[C@H]1C[C@H](S(=O)(=O)c2cccc(C(F)(F)F)c2)C1` [Compound 406, (1R,3R)-N-(4-(4-fluorophenoxy)phenyl)-3-(3-(trifluoromethyl)phenylsulfonyl)cyclobutane carboxamide], 1540 nM.
Take `O=C(N[C@H]1CC[C@@H](S(=O)(=O)c2cccc(C(F)(F)F)c2)CC1)c1cnc(C(F)(F)F)nc1` [Compound 205, 2-(trifluoromethyl)-N-((1S,4S)-4-(3-(trifluoromethyl)phenylsulfonyl)cyclohexyl)pyrimidine-5-carboxamide]: the IC50 came out at 1700 nM.
Regarding `COc1cc(F)cc(C(=O)N[C@H]2C[C@H](S(=O)(=O)c3cccc(C(F)(F)F)c3)C2)c1` [Compound 222, 3-fluoro-5-methoxy-N-(trans-3-(3-(trifluoromethyl)phenylsulfonyl)cyclobutyl)benzamide], the IC50 came out at 2960 nM.
The same measure, in the same setting: in the case of `COc1cc(C(=O)NCC2(C)CCC(F)(S(=O)(=O)c3cccc(C(F)(F)F)c3)CC2)ccn1` (stereo not shown) [Compound 157, N-((4-fluoro-1-methyl-4-(3-(trifluoromethyl)phenylsulfonyl)cyclohexyl)methyl)-2-methoxyisonicotinamide] it was 1030 nM; in that of `O=C(N[C@H]1CC[C@@H](S(=O)(=O)c2cccc(C(F)(F)F)c2)CC1)c1ccnc(F)c1` [Compound 201, 2-fluoro-N-((1S,4S)-4-(3-(trifluoromethyl)phenylsulfonyl)cyclohexyl)isonicotinamide], 1860 nM.
On to `CN(CC(=O)N[C@H]1CC[C@H](CS(=O)(=O)c2cccc(C(F)(F)F)c2)CC1)C(C)(C)C` [Compound 161, 2-(tert-butyl(methyl)amino)-N-((1R,4R)-4-((3-(trifluoromethyl)phenylsulfonyl)methyl)cyclohexyl)acetamide], for which the IC50 came to 2450 nM.
Same read-out and setting: in the case of `O=C(CN[C@H]1C[C@H](S(=O)(=O)c2cccc(C(F)(F)F)c2)C1)NC1CCCCC1` [Compound 216, N-cyclohexyl-2-(trans-3-(3-(trifluoromethyl)phenylsulfonyl)cyclobutylamino)acetamide] it was 1010 nM; in that of `CC(C)(C)NC(=O)CN[C@H]1C[C@H](S(=O)(=O)c2cccc(C(F)(F)F)c2)C1` [Compound 215, N-tert-butyl-2-(trans-3-(3-(trifluoromethyl)phenylsulfonyl)cyclobutylamino)acetamide], 2810 nM.
For `CC(C)(C)c1nc([C@H]2C[C@H](S(=O)(=O)c3cccc(C(F)(F)F)c3)C2)c[nH]1` [Compound 448, 2-tert-butyl-4-((1R,3R)-3-(3-(trifluoromethyl)phenylsulfonyl)cyclobutyl)-1H-imidazole], the IC50 was 2110 nM.
